Source: patent publication US8541395B2 (priority 2009, dated 2013)

How the values were obtained:
male Swiss mice [1] = test: Formalin assay (intraplantar 4% formalin, phases 1 and 2) in mice; settings: naloxone 5 mg/kg i.p., morphine 10 mg/kg, telocinobufagin 5 mg/kg oral
male Swiss mice [2] = test: Hot plate assay; settings: naloxone 5 mg/kg i.p.; morphine dose printed as 'mg/kg'; telocinobufagin 5 mg/kg oral
male Swiss mice [3] = test: Contortion assay (0.6% acetic acid, abdominal contortions) in mice; settings: naloxone 5 mg/kg i.p.; morphine 10 mg/kg i.p.; telocinobufagin 10 mg/kg oral
male Swiss mice [4] = test: Tail flick assay; settings: naloxone 5 mg/kg i.p.; morphine 10 mg/kg; telocinobufagin 5 mg/kg oral
[5] = test system: rats with sciatic nerve ligature; test: Chronic constrictive injury (CCI) model, hyperalgesia (Randall & Selitto paw pressure); settings: naloxone 5 mg/kg i.p.; morphine 10 mg/kg; telocinobufagin 5 mg/kg i.p.
[6] = test system: rats with sciatic nerve ligature; test: Chronic constrictive injury (CCI) model, allodynia (von Frey)
right atrium of rats = test: Chronotropism of isolated rat atrium (frequency of spontaneous contractions)
From the text: The right rat atrium was used to assess the chronotropic activity. The values of the spontaneous mechanical activity of the right atrium were expressed in contractions frequency or beats per minute (bpm). The heart rate was 298±50 contractions per minute in the rat right atrium.

left atrium of rats = test: Inotropism of isolated rat atrium (cardiac contraction force)
From the text: The left atrium of rats was used to assess the inotropic activity. The data were expressed as contraction force (g of tension), and were compared to the results obtained with bupivacaine.
The application of square pulses (5 V, 5 ms, 2 Hz) in the left atrium with frequency of 120 bpm was sufficient to produce a cardiac contraction force of 0.63±0.09 g of tension.

| SMILES | effect of naloxone on the analgesic action, phase 1 (male Swiss mice [1]; phase 1) | effect of naloxone on the analgesic action, phase 2 (male Swiss mice [1]; phase 2) | effect of naloxone on the analgesic action (male Swiss mice [2]) | effect of naloxone on the analgesic action (male Swiss mice [3]) | effect of naloxone on the analgesic action (male Swiss mice [4]) | effect of naloxone on the analgesic action, hyperalgesia [5] | reversion of the allodynia (compared to RP) ([6]; intraperitoneal morphine 10 mg/kg) | effect of naloxone on the analgesic action, allodynia ([6]; naloxone 5 mg/kg i.p., morphine 10 mg/kg, telocinobufagin 5 mg/kg i.p.) | frequency of spontaneous cardiac activity (right atrium of rats; 3×10^−5 M, basal 298±50, mean±standard error, n=6) | heart rate (frequency of spontaneous cardiac activity) (right atrium of rats; 10^−4 M, p<0.05) | cardiac contraction force (left atrium of rats; 3×10^−5 M, basal 0.63±0.09, mean±SEM, n=6) | cardiac contraction force (left atrium of rats; 10^−4 M, p<0.05) |
| --- | --- | --- | --- | --- | --- | --- | --- | --- | --- | --- | --- | --- |
| CN1CC[C@]23c4c5ccc(O)c4O[C@H]2[C@@H](O)C=C[C@H]3[C@H]1C5.O=S(=O)(O)O [morphine, morphine sulfate, reference compound] | blocked | blocked | blocked | blocked | blocked | blocked | ~50% | blocked | – | – | – | – |
| CCCCN1CCCCC1C(=O)Nc1c(C)cccc1C (stereo not drawn) [bupivacaine, reference compound] | – | – | – | – | – | – | – | – | 9.6±2.4 bpm | blocked completely the heart rate to zero | 0.13±0.06 g of tension | blocked completely the cardiac contraction force to zero |
